# Reference: ChEMBL document CHEMBL2331257, “(M)- and (P)-bicelaphanol A, dimeric trinorditerpenes with promising neuroprotective activity from Celastrus orbiculatus” (2013)
# Columns and labels:
# Format in all cases: functional
# PC-12 [1] = experiment: Neuroprotective activity against H2O2-induced toxicity in rat PC12 cells assessed as cell viability at 1 uM incubated for 2 hrs prior to H2O2-challenge measured after 24 hrs by MTT assay relative to control; details: for viability at 1 µM: Rattus norvegicus, PC-12, read-out: Activity
# PC-12 [2] = experiment: Neuroprotective activity against H2O2-induced toxicity in rat PC12 cells assessed as cell viability at 10 uM incubated for 2 hrs prior to H2O2-challenge measured after 24 hrs by MTT assay relative to control; details: for viability at 10 µM: Rattus norvegicus, PC-12, read-out: Activity
# PC-12 [3] = experiment: Neuroprotective activity against H2O2-induced toxicity in rat PC12 cells assessed as cell viability at 100 uM incubated for 2 hrs prior to H2O2-challenge measured after 24 hrs by MTT assay relative to control; details: read-out: Activity
Compound,Activity (PC-12 [1]),Activity (PC-12 [2]),viability at 1 µM (PC-12 [1]),viability at 10 µM (PC-12 [2]),viability at 100 µM (PC-12 [3])
CC1(C)CCC[C@@]2(C)C1=C(O)C(=O)c1c2cc(O)c(O)c1C1=C2C=C(O)C(=O)C=C2[C@@]2(C)CCCC(C)(C)[C@@H]2C1=O (stereo in doubt; 1),81.3%,102.7%,,,
CC1(C)CCC[C@@]2(C)C1=C(O)C(=O)c1c2cc(O)c(O)c1C1=C2C=C(O)C(=O)C=C2[C@@]2(C)CCCC(C)(C)[C@@H]2C1=O (stereo in doubt; 2),,,78.3%,91.6%,
CC(=O)N[C@@H](CS)C(=O)O [ACETYLCYSTEINE],,,,,76.1%
CC1(C)CCC[C@@]2(C)C1=C(O)C(=O)c1cc(O)c(O)cc12 [CELAPHANOL A],,,66.4%,76.9%,
